How the values were obtained:
Assay type in all cases: in vivo
[1] = test system: redroot pigweed (Amaranthus retroflexus, AMARE); test: Pre-emerge test, greenhouse herbicide activity screening; conditions: pre-emerge, rated 14 days after application, 0 = no damage, 100 = complete death
Method in brief: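 Plants grown in 10 cm pots of sandy loam mix received acetone-dissolved compounds through a moving flat-fan nozzle. Doses ranged from 15 to 1000 g ai/ha. Pre-emerge pots were seeded one day earlier, post-emerge pots 8–21 days earlier. Fourteen days on, each pot was graded 0–100 for damage.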

[2] = test system: barnyardgrass (Echinochloa crus-galli, ECHCG); test: as above; conditions: pre-emerge, rated 14 days after application, 0 = no damage, 100 = complete death
Method in brief: (§1)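 Herbicidal damage is scored 0 (none) to 100 (complete plant death) two weeks after a simulated field spray. Rates span 15–1000 g ai/ha, delivered in acetone at 187 l/ha. For post-emergence treatments, plants have 2–3 leaves and the spray carries 0.25% v/v non-ionic surfactant.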

[3] = test system: green foxtail (Setaria viridis, SETVI); test: as above; conditions: pre-emerge, rated 14 days after application, 0 = no damage, 100 = complete death
Method in brief: as §1

[4] = test system: ivyleaf morningglory (Ipomoea hederacea, IPOHE); test: as above; conditions: pre-emerge, rated 14 days after application, 0 = no damage, 100 = complete death
Method in brief: as §1

[5] = test system: johnsongrass (Sorghum halepense, SORHA); test: as above; conditions: pre-emerge, rated 14 days after application, 0 = no damage, 100 = complete death
Method in brief: as §1

[6] = test system: lambsquarters (Chenopodium album, CHEAL); test: as above; conditions: pre-emerge, rated 14 days after application, 0 = no damage, 100 = complete death
Method in brief: as §1

[7] = test system: large crabgrass (Digitaria sanguinalis, DIGSA); test: as above; conditions: pre-emerge, rated 14 days after application, 0 = no damage, 100 = complete death
Method in brief: as §1

[8] = test system: sicklepod (Cassia obtusifolia, CASOB); test: as above; conditions: pre-emerge, rated 14 days after application, 0 = no damage, 100 = complete death
Method in brief: as §1

[9] = test system: velvetleaf (Abutilon theophrasti, ABUTH); test: as above; conditions: pre-emerge, rated 14 days after application, 0 = no damage, 100 = complete death
Method in brief: as §1

[10] = test system: field corn (Zea mays L., var. Dekalb 535, CORN); test: Pre-emerge test, crop safety; conditions: pre-emerge, rated 14 days after application, 0 = no damage, 100 = complete death
Method in brief: (§2)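 Applied at 15–1000 g ai/ha from acetone in 187 l/ha spray volume. Post-emergence applications included 0.25% v/v non-ionic surfactant and reached plants sown 8–21 days before. Pre-emergence applications were incorporated by surface watering. Efficacy or crop damage was rated on a 0–100 scale after 14 days.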

[11] = test system: upland rice (Oryza sp., var. Tebonnet, RICE); test: Pre-emerge test, crop safety; conditions: pre-emerge, rated 14 days after application, 0 = no damage, 100 = complete death
Method in brief: as §2

[12] = test system: barnyardgrass (Echinochloa crus-galli, ECHCG); test: Post-emerge test, greenhouse herbicide activity screening; conditions: 14 days after application; for Post-emerge Herbicidal Activity ECHCG: phytotoxicity rating 0-100 (0 no damage, 100 complete death); for phytotoxicity rating ECHCG: post-emerge, rating scale 0-100
Method in brief: (§3)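 Compounds in acetone were track-sprayed at 15–1000 g ai/ha: pre-emergence onto soil sown the previous day, then top-watered to incorporate and later bottom-watered; post-emergence onto 2–3 leaf plants with 0.25% v/v surfactant, bottom-watered only. Ratings on a 0–100 phytotoxicity scale were taken at day 14.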

[13] = test system: common ragweed (Ambrosia artemisizfolia L., AMBEL); test: as above; conditions: post-emerge, 14 days after application, rating scale 0-100
Method in brief: as §3

[14] = test system: green foxtail (Setaria viridis, SETVI); test: as above; conditions: 14 days after application; for Post-emerge Herbicidal Activity SETVI: phytotoxicity rating 0-100 (0 no damage, 100 complete death); for phytotoxicity rating SETVI: post-emerge, rating scale 0-100
Method in brief: as §3

[15] = test system: ivyleaf morningglory (Ipomoea hederacea, IPOHE); test: as above; conditions: 14 days after application; for Post-emerge Herbicidal Activity IPOHE: phytotoxicity rating 0-100 (0 no damage, 100 complete death); for phytotoxicity rating IPOHE: post-emerge, rating scale 0-100
Method in brief: as §3

[16] = test system: johnsongrass (Sorghum halepense, SORHA); test: as above; conditions: 14 days after application; for Post-emerge Herbicidal Activity SORHA: phytotoxicity rating 0-100 (0 no damage, 100 complete death); for phytotoxicity rating SORHA: post-emerge, rating scale 0-100
Method in brief: as §3

[17] = test system: lambsquarters (Chenopodium album, CHEAL); test: as above; conditions: 14 days after application; for Post-emerge Herbicidal Activity CHEAL: phytotoxicity rating 0-100 (0 no damage, 100 complete death); for phytotoxicity rating CHEAL: post-emerge, rating scale 0-100
Method in brief: as §3

[18] = test system: large crabgrass (Digitaria sanguinalis, DIGSA); test: as above; conditions: 14 days after application; for Post-emerge Herbicidal Activity DIGSA: phytotoxicity rating 0-100 (0 no damage, 100 complete death); for phytotoxicity rating DIGSA: post-emerge, rating scale 0-100
Method in brief: as §3

[19] = test system: redroot pigweed (Amaranthus retroflexus, AMARE); test: as above; conditions: 14 days after application; for Post-emerge Herbicidal Activity AMARE: phytotoxicity rating 0-100 (0 no damage, 100 complete death); for phytotoxicity rating AMARE: post-emerge, rating scale 0-100
Method in brief: as §3

[20] = test system: sicklepod (Cassia obtusifolia, CASOB); test: as above; conditions: 14 days after application; for Post-emerge Herbicidal Activity CASOB: phytotoxicity rating 0-100 (0 no damage, 100 complete death); for phytotoxicity rating CASOB: post-emerge, rating scale 0-100
Method in brief: as §3

[21] = test system: velvetleaf (Abutilon theophrasti, ABUTH); test: as above; conditions: 14 days after application; for Post-emerge Herbicidal Activity ABUTH: phytotoxicity rating 0-100 (0 no damage, 100 complete death); for phytotoxicity rating ABUTH: post-emerge, rating scale 0-100
Method in brief: as §3

[22] = test system: field corn (Zea mays L., var. Dekalb 535, CORN); test: Post-emerge test, crop safety; conditions: 14 days after application; for Post-emerge Herbicidal Activity CORN (crop damage): phytotoxicity rating 0-100 (0 no damage, 100 complete death); for phytotoxicity rating CORN: post-emerge, rating scale 0-100
Method in brief: as §1

[23] = test system: upland rice (Oryza sp., var. Tebonnet, RICE); test: Post-emerge test, crop safety; conditions: 14 days after application; for Post-emerge Herbicidal Activity RICE (crop damage): phytotoxicity rating 0-100 (0 no damage, 100 complete death); for phytotoxicity rating RICE: post-emerge, rating scale 0-100
Method in brief: as §1

COc1c(Cl)cc(F)c(-n2c(=O)cc(C(F)(F)F)n(C)c2=O)c1NC(=O)CC#N [2-14]
Pre-emerge Herbicidal Activity AMARE (phytotoxicity rating, scale 0-100) ([1]; 63 g ai/ha): 50 | Pre-emerge Herbicidal Activity AMARE (phytotoxicity rating, scale 0-100) ([1]; 250 g ai/ha): 100 | Pre-emerge Herbicidal Activity ECHCG (phytotoxicity rating, scale 0-100) ([2]; 63 g ai/ha): 0 | Pre-emerge Herbicidal Activity ECHCG (phytotoxicity rating, scale 0-100) ([2]; 250 g ai/ha): 0 | Pre-emerge Herbicidal Activity SETVI (phytotoxicity rating, scale 0-100) ([3]; 63 g ai/ha): 60 | Pre-emerge Herbicidal Activity SETVI (phytotoxicity rating, scale 0-100) ([3]; 250 g ai/ha): 100 | Pre-emerge Herbicidal Activity IPOHE (phytotoxicity rating, scale 0-100) ([4]; 63 g ai/ha): 0 | Pre-emerge Herbicidal Activity IPOHE (phytotoxicity rating, scale 0-100) ([4]; 250 g ai/ha): 100 | Pre-emerge Herbicidal Activity SORHA (phytotoxicity rating, scale 0-100) ([5]; 63 g ai/ha): 0 | Pre-emerge Herbicidal Activity SORHA (phytotoxicity rating, scale 0-100) ([5]; 250 g ai/ha): 30 | Pre-emerge Herbicidal Activity CHEAL (phytotoxicity rating, scale 0-100) ([6]; 63 g ai/ha): 50 | Pre-emerge Herbicidal Activity CHEAL (phytotoxicity rating, scale 0-100) ([6]; 250 g ai/ha): 100 | Pre-emerge Herbicidal Activity DIGSA (phytotoxicity rating, scale 0-100) ([7]; 63 g ai/ha): 0 | Pre-emerge Herbicidal Activity DIGSA (phytotoxicity rating, scale 0-100) ([7]; 250 g ai/ha): 20 | Pre-emerge Herbicidal Activity CASOB (phytotoxicity rating, scale 0-100) ([8]; 63 g ai/ha): 0 | Pre-emerge Herbicidal Activity CASOB (phytotoxicity rating, scale 0-100) ([8]; 250 g ai/ha): 60 | Pre-emerge Herbicidal Activity ABUTH (phytotoxicity rating, scale 0-100) ([9]; 63 g ai/ha): 90 | Pre-emerge Herbicidal Activity ABUTH (phytotoxicity rating, scale 0-100) ([9]; 250 g ai/ha): 100 | Pre-emerge crop damage CORN (phytotoxicity rating, scale 0-100) ([10]; 63 g ai/ha): 0 | Pre-emerge crop damage CORN (phytotoxicity rating, scale 0-100) ([10]; 250 g ai/ha): 0 | Pre-emerge crop damage RICE (phytotoxicity rating, scale 0-100) ([11]; 63 g ai/ha): 0 | Pre-emerge crop damage RICE (phytotoxicity rating, scale 0-100) ([11]; 250 g ai/ha): 30 | Post-emerge Herbicidal Activity ECHCG ([12]; 63 g ai/ha): 0 | Post-emerge Herbicidal Activity ECHCG ([12]; 250 g ai/ha): 0 | phytotoxicity rating ECHCG ([12]; 63 g ai/ha): 30 | phytotoxicity rating ECHCG ([12]; 250 g ai/ha): 40 | phytotoxicity rating AMBEL ([13]; 63 g ai/ha): 60 | phytotoxicity rating AMBEL ([13]; 250 g ai/ha): 90 | Post-emerge Herbicidal Activity SETVI ([14]; 63 g ai/ha): 0 | Post-emerge Herbicidal Activity SETVI ([14]; 250 g ai/ha): 0 | phytotoxicity rating SETVI ([14]; 63 g ai/ha): 20 | phytotoxicity rating SETVI ([14]; 250 g ai/ha): 50 | Post-emerge Herbicidal Activity IPOHE ([15]; 63 g ai/ha): 40 | Post-emerge Herbicidal Activity IPOHE ([15]; 250 g ai/ha): 80 | phytotoxicity rating IPOHE ([15]; 63 g ai/ha): 70 | phytotoxicity rating IPOHE ([15]; 250 g ai/ha): 90 | Post-emerge Herbicidal Activity SORHA ([16]; 63 g ai/ha): 0 | Post-emerge Herbicidal Activity SORHA ([16]; 250 g ai/ha): 0 | phytotoxicity rating SORHA ([16]; 63 g ai/ha): 20 | phytotoxicity rating SORHA ([16]; 250 g ai/ha): 20 | Post-emerge Herbicidal Activity CHEAL ([17]; 63 g ai/ha): 30 | Post-emerge Herbicidal Activity CHEAL ([17]; 250 g ai/ha): 40 | phytotoxicity rating CHEAL ([17]; 63 g ai/ha): 80 | phytotoxicity rating CHEAL ([17]; 250 g ai/ha): 100 | Post-emerge Herbicidal Activity DIGSA ([18]; 63 g ai/ha): 0 | Post-emerge Herbicidal Activity DIGSA ([18]; 250 g ai/ha): 0 | phytotoxicity rating DIGSA ([18]; 63 g ai/ha): 10 | phytotoxicity rating DIGSA ([18]; 250 g ai/ha): 20 | Post-emerge Herbicidal Activity AMARE ([19]; 63 g ai/ha): 40 | Post-emerge Herbicidal Activity AMARE ([19]; 250 g ai/ha): 70 | phytotoxicity rating AMARE ([19]; 63 g ai/ha): 85 | phytotoxicity rating AMARE ([19]; 250 g ai/ha): 100 | Post-emerge Herbicidal Activity CASOB ([20]; 63 g ai/ha): 10 | Post-emerge Herbicidal Activity CASOB ([20]; 250 g ai/ha): 10 | phytotoxicity rating CASOB ([20]; 63 g ai/ha): 40 | phytotoxicity rating CASOB ([20]; 250 g ai/ha): 70 | Post-emerge Herbicidal Activity ABUTH ([21]; 63 g ai/ha): 90 | Post-emerge Herbicidal Activity ABUTH ([21]; 250 g ai/ha): 95 | phytotoxicity rating ABUTH ([21]; 63 g ai/ha): 100 | phytotoxicity rating ABUTH ([21]; 250 g ai/ha): 100 | Post-emerge Herbicidal Activity CORN (crop damage) ([22]; 63 g ai/ha): 0 | Post-emerge Herbicidal Activity CORN (crop damage) ([22]; 250 g ai/ha): 10 | phytotoxicity rating CORN ([22]; 63 g ai/ha): 50 | phytotoxicity rating CORN ([22]; 250 g ai/ha): 60 | Post-emerge Herbicidal Activity RICE (crop damage) ([23]; 63 g ai/ha): 10 | Post-emerge Herbicidal Activity RICE (crop damage) ([23]; 250 g ai/ha): 30 | phytotoxicity rating RICE ([23]; 63 g ai/ha): 60 | phytotoxicity rating RICE ([23]; 250 g ai/ha): 90
